Laboratory results as given in patent publication US20170135378A1, “COMPOSITION AND USE THEREOF” (DUPONT NUTRITION BIOSCIENCES APS, priority 2014, published 2017).

How the values were obtained:
[1] = Release testing of betaine leaching from shrimp feed pellets in artificial seawater; assay type: physicochemical
Description: An aquafeed comprising the composition of the invention (or the composition itself) is placed in a rotating basket and immersed in 500 ml of artificial seawater (547.6 mM NaCl, 56.8 mM MgSO4.7H2O, 2.4 mM NaHCO3, adjusted to pH 8,2 with 1M NaOH), and held at 30° C. Aliquots of sample are withdrawn at selected time-points (1, 3, 5, 10, 15, 30, 45, 60 and 90 minutes). The volume of dissolution media is held constant through the re-addition of aliquots (30° C.) of fresh media to compensate. The aliquots are analysed by a suitable analytical technique (e.g. HPLC) in order to determine the concentration of the hydro-soluble component in the dissolution media.
An aquafeed sample (30 g) was placed in a rotating basket and immersed in 500 ml of artificial seawater (pH 8,2), held at 30° C. 5 ml aliquots of sample were withdrawn at selected time-points (1, 3, 5, 10, 15, 30, 45, 60 and 90 minutes). The volume of dissolution media was held constant (500 ml) through the re-addition of 5 ml aliquots of fresh media (30° C.). These samples were filtered on […], frozen and analysed by HPLC in Advanced Analysis.
Release curves (see FIGS. 1 to 3) show the amount of betaine leached as a percentage of weight of available net betaine (% w/w).

[2] = pure form; water and lower alcohols; cited from earlier work

What does the source list for `C[N+](C)(C)CC(=O)[O-]` [Betafin BT, trimethylglycine]?
proportion of available betaine leached over 90 minutes ([1]; pellets with increased betaine content (c. 5 and 10 kg/T, FIGS. 2 and 3), artificial seawater pH 8,2, 30° C., 90 minutes): ≤ 40%; leach profile of pellets (comparison in words) ([1]; shrimp feed pellets c. 2, 5 and 10 kg betaine/T, artificial seawater, 30° C., up to 90 minutes): fastest and most extensive leaching; available betaine dissolved after 90 minutes ([1]; shrimp feed pellets prepared with c. 2 kg betaine/T, artificial seawater pH 8,2, 30° C., 90 minutes, FIG. 1): ≤ 60%; solubility (in words) [2]: readily soluble in water and lower alcohols
